According to US4620930A, “Process for rapidly determining biological toxicity of wastewater” (priority 1985, dated 1986):
In brackets after ≈: the same amount, converted by molar mass. Read-outs that look alike come from different tables or passages of the source.

How the values were obtained:
[1] = system: PHENOBAC bacterial culture; experiment: microbe, parasite or virus in culture; type: cell-based, PHENOBAC mutant bacteria containing Pseudomonas; details: for IC50: 20 min, read-out: concentration resulting in an inhibition of the bacteria of about 50%
Source text: In the rapid toxicity test described herein the dried culture first undergoes rehydration and then respiration development when contacted with aqueous system containing organic material.
In carrying out the test process, a preselected amount of the dried bacterial culture is first charged to a preselected amount of a standardized substrate for the purpose of determining a standard of respiration or activity of the culture. […] Typically, the quantity of bacterial culture is selected to give a good rate of oxygen decline, e.g., a decline of 2-5 mg/liter oxygen over a twenty minute interval. For reference purposes from 5 to 15 grams of culture/500 ml. of sample solution will be sufficient. The standardized substrate used in the test procedure is […] or another standardized medium of known composition. […] During this period, this oxygen respiration activity is measured by measuring the dissolved oxygen content in the substrate. The dissolved oxygen content then is plotted as a function of time. The rate of decline of dissolved oxygen content in the substrate is ascertained at some preselected time where the rate of dissolved oxygen decline is substantial and where the residual oxygen in the sample of greater than 0.5 mg/l oxygen. With bacterial cultures of the type described, this preselected time can be within the range of 10 to 30 minutes. […] Although numerous methods can be used to ascertain the rate of decline of oxygen, the simplest is to determine that rate from a graph by taking the slope (y/x) of the curve at the preselected time.
The organic quality of sewage, in terms of organic content or toxic substance, is measured by repeating the exact same process, using the test sample in place of the standardized sample. In many instances, particularly where the test sample contains a substantial amount of toxic material or organic matter, the test sample may be diluted with distilled water to provide a more accurate measurement. This is done in those cases where the slope of the curve is small. In any event, the test substrate or wastewater to be tested is added to the test vessel containing the bacterial culture and the dissolved oxygen content measured as a function of time. The rate of decline in dissolved oxygen content for the test substrate or wastewater is then determined at the same preselected time utilized for the standard. This rate of decline is then compared to the rate of decline for the standardized substrate. The relative toxicity or inhibition of the test water versus the standardized substrate, can then be calculated by the equation: [formula]
A baseline standard was generated for a bacterial formulation sold under the trademark PHENOBAC by Polybac Corporation by first charging 350 ml of distilled water to a first vessel. The water was then saturated with oxygen by sealing the vessel which was half full of air and shaking it rapidly.

[2] = system: PHENOBAC bacterial culture; experiment: microbe, parasite or virus in culture; details: Pseudomonas, pH 7, read-out: percent inhibition, with prehydration
Method: A baseline standard was generated for a bacterial formulation sold under the trademark PHENOBAC by Polybac Corporation by first charging 350 ml of distilled water to a first vessel. The water was then saturated with oxygen by sealing the vessel which was half full of air and shaking it rapidly. The dissolved oxygen content of the sample was then measured to determine if the oxygen level exceeded 5.0 mg/l at a temperature of 20° C. (If the level was above 5.0 mg/l, it was assumed the sample was sufficiently saturated with oxygen to proceed.) After oxygen saturation, the water was charged to a second vessel containing 8 grams of the dried granular PHENOBAC mutant bacteria containing Pseudomonas and 0.6 grams of potassium bicarbonate. The latter acted to buffer the pH in the vessel to approximately 7. A dissolved oxygen probe was then inserted into the vessel and the contents of the vessel stirred while measuring the dissolved oxygen concentration in the vessel. Several measured data points were recorded in one to two minute intervals for a period of about 30 minutes. These values were plotted with dissolved oxygen in mg/liter represented on the ordinant and time (minute) plotted represented on the abscissa. The baseline standard curves are shown as Curves A and J on FIGS. 1 and 2 respectively.
A series of tests was conducted for the purpose of determining the relative toxicity of various phenolic solutions. The general test technique involved the utilization of test samples containing various known concentrations of toxic material, e.g., phenol. The test sample was buffered to a pH of 7 by the addition of sodium hydroxide or sulphuric acid. Measurement of pH using pH paper was found most convenient. Once the pH of the solution was at the appropriate level, the sample was then aerated by placing the sample in a vessel half full of air, sealing the vessel and shaking the vessel vigorously for several minutes. The oxygen saturated 350 ml. solution having a dissolved oxygen content greater than 5.0 mg/l was then introduced to a test vessel containing 8 grams of dried granular PHENOBAC bacterial culture and 0.5 g of sodium bicarbonate. The dissolved oxygen concentration in the closed sealed vessel was then measured and plotted for a series of phenol concentrations in FIG. 1 in the same manner as the baseline standard in Example 1 and also illustrated in FIG. 1. Each curve, B-G, is labeled with respect to the phenol concentration present during the test. Curve A represents the baseline standard. From these curves one can calculate the rate of decline in dissolved oxygen concentration observed at 20 minutes for each phenol concentration. The percent inhibition is then calculated from the various dissolved oxygen decline curves for each phenol concentration in FIG. 1 according to the equation: [formula]
As in Examples 1 and 2, the general technique for these tests involved pretreatment of the wastewater or test solution to achieve a pH of 7.0 and an oxygen saturation of at least 5.0 mg/l. However, prior to adding the test solution to the test vessel containing the dried PHENOBAC culture, the bacteria were allowed to rehydrate 10 minutes in clean water and then the test solution containing phenol was added to the test vessel. In this manner, the initial rehydration of the bacterial populations was carried out in the absence of the chemical being tested. This is the customary prior art procedure. After rehydration, the bacteria were then exposed to the test chemical and its effect on bacterial respiration evaluated.

[3] = Pseudomonas, pH 7, read-out: percent inhibition, preferred contact rehydration

SMILES	concentration resulting in an inhibition of the bacteria of about 50% ([1]; from FIG. 3, rate of dissolved oxygen decline at 20 minutes versus baseline standard)	IC50 ([1]; Pseudomonas)	inhibition at 312 µg/mL [2]	inhibition at 625 µg/mL [2]	inhibition at 1250 µg/mL [2]	inhibition at 2500 µg/mL [2]	inhibition at 5000 µg/mL [2]	inhibition at 10000 µg/mL [2]	inhibition at 312 µg/mL [1, 3]	inhibition at 625 µg/mL [1, 3]	inhibition at 1250 µg/mL [1, 3]	inhibition at 2500 µg/mL [1, 3]	inhibition at 5000 µg/mL [1, 3]	inhibition at 10000 µg/mL [1, 3]	inhibition or sensitivity of the bacteria, direct contact rehydration compared with prehydration in water ([1]; rehydrated in direct contact with the test phenol solutions rather than in water first)
[Cu+2] [copper, copper (+2) ion]	29 mg/L	–	–	–	–	–	–	–	–	–	–	–	–	–	–
C=O [formaldehyde]	–	~140 µg/mL (≈ 4.66 mM)	–	–	–	–	–	–	–	–	–	–	–	–	–
Oc1ccccc1 [phenol]	–	~1600 µg/mL (≈ 17 mM)	10%	17%	33%	57%	80%	93%	12%	22%	37%	68%	87%	98%	greater inhibition or sensitivity
